In US20230146675A1, “PYRIMIDO[5,4-d]PYRIMIDINE DERIVATIVES AS ENT INHIBITORS FOR THE TREATMENT OF CANCERS, AND COMBINATION THEREOF WITH ADENOSINE RECEPTOR ANTAGONISTS” (ITEOS BELGIUM SA, priority 2020, published 2023):

These compounds were tested against T1, human ENT1 (Homo sapiens, UniProt Q99808) (assay: ENT1 binding assay (competition with Sahenta-DY647 on JAR cells)). Conditions: binned IC50.
T1 sequence (Q99808 1-456): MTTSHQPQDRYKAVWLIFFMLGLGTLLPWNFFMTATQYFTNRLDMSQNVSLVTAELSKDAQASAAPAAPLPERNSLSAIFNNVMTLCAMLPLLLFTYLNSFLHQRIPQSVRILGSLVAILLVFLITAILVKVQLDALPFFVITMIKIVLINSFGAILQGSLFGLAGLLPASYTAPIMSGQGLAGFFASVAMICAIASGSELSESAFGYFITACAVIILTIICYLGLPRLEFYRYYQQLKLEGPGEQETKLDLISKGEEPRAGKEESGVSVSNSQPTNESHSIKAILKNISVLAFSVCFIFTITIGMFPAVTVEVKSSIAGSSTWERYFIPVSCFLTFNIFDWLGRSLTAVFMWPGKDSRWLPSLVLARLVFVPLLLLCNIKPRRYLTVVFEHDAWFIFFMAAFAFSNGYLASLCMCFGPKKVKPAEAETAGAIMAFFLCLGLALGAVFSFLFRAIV
Parameters: JAR cells expressing ENT1 were bought from ATCC; host or cells: JAR cells
Summary of the method: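 JAR cells were incubated with test compounds and the fluorescent ligand Sahenta-DY647 in competition. Plates were washed twice by centrifugation (4 min, 400 rcf, 4 °C). Binding potency was derived from the final fluorescence.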

IC50 | SMILES
< 100 nM | COCCN(CCOC)c1nc(N2CCn3ncnc3C2)c2nc(N(CCOC)CCOC)nc(N3CCC(OC)CC3)c2n1 [Compound 116, 4-(5,6-dihydro-[1,2,4]triazolo[1,5-a]pyrazin-7(8H)-yl)-N2,N2,N6,N6-tetrakis(2-methoxyethyl)-8-(4-methoxypiperidin-1-yl)pyrimido[5,4-d]pyrimidine-2,6-diamine]
500 to 1000 nM | COCCN(CCOC)c1nc(N2CCC3(CC2)NC(=O)NC3=O)c2nc(N(CCOC)CCOC)nc(N3CCC(OC)CC3)c2n1 [Compound 117, 8-(2,6-bis(bis(2-methoxyethyl)amino)-8-(4-methoxypiperidin-1-yl)pyrimido[5,4-d]pyrimidin-4-yl)-1,3,8-triazaspiro[4.5]decane-2,4-dione]
100 to 500 nM | COCCN(CCOC)c1nc(N2CCN(c3cccnc3)CC2)c2nc(N(CCOC)CCOC)nc(N3CCC(OC)CC3)c2n1 [Compound 118, N2,N2,N6,N6-tetrakis(2-methoxyethyl)-4-(4-methoxypiperidin-1-yl)-8-(4-(pyridin-3-yl)piperazin-1-yl)pyrimido[5,4-d]pyrimidine-2,6-diamine]
500 to 1000 nM | COCCN(CCOC)c1nc(N2CCN(c3ncccn3)CC2)c2nc(N(CCOC)CCOC)nc(N3CCC(OC)CC3)c2n1 [Compound 119, N2,N2,N6,N6-tetrakis(2-methoxyethyl)-4-(4-methoxypiperidin-1-yl)-8-(4-(pyrimidin-2-yl)piperazin-1-yl)pyrimido[5,4-d]pyrimidine-2,6-diamine]
500 to 1000 nM | COCCN(CCOC)c1nc(N2CCN(c3cnccn3)CC2)c2nc(N(CCOC)CCOC)nc(N3CCC(OC)CC3)c2n1 [Compound 120, N2,N2,N6,N6-tetrakis(2-methoxyethyl)-4-(4-methoxypiperidin-1-yl)-8-(4-(pyrazin-2-yl)piperazin-1-yl)pyrimido[5,4-d]pyrimidine-2,6-diamine]
500 to 1000 nM | COCCN(CCOC)c1nc(N2CCN(c3ncccc3N)CC2)c2nc(N(CCOC)CCOC)nc(N3CCC(OC)CC3)c2n1 [Compound 121, 4-(4-(3-aminopyridin-2-yl)piperazin-1-yl)-N2,N2,N6,N6-tetrakis(2-methoxyethyl)-8-(4-methoxypiperidin-1-yl)pyrimido[5,4-d]pyrimidine-2,6-diamine]
100 to 500 nM | COCCN(CCOC)c1nc(N2CCN(c3nccc(C)n3)CC2)c2nc(N(CCOC)CCOC)nc(N3CCC(OC)CC3)c2n1 [Compound 122, N2,N2,N6,N6-tetrakis(2-methoxyethyl)-4-(4-methoxypiperidin-1-yl)-8-(4-(4-methylpyrimidin-2-yl)piperazin-1-yl)pyrimido[5,4-d]pyrimidine-2,6-diamine]
100 to 500 nM | COCCN(CCOC)c1nc(N2CCN(c3nc(C)ns3)CC2)c2nc(N(CCOC)CCOC)nc(N3CCC(OC)CC3)c2n1 [Compound 123, N2,N2,N6,N6-tetrakis(2-methoxyethyl)-4-(4-methoxypiperidin-1-yl)-8-(4-(3-methyl-1,2,4-thiadiazol-5-yl)piperazin-1-yl)pyrimido[5,4-d]pyrimidine-2,6-diamine]
100 to 500 nM | COCCN(CCOC)c1nc(N2CCN(c3ccc(C#N)cn3)CC2)c2nc(N(CCOC)CCOC)nc(N3CCC(OC)CC3)c2n1 [Compound 124, 6-(4-(2,6-bis(bis(2-methoxyethyl)amino)-8-(4-methoxypiperidin-1-yl)pyrimido[5,4-d]pyrimidin-4-yl)piperazin-1-yl)nicotinonitrile]
100 to 500 nM | COCCN(CCOC)c1nc(N2CCN(c3nccc(OC)n3)CC2)c2nc(N(CCOC)CCOC)nc(N3CCC(OC)CC3)c2n1 [Compound 125, N2,N2,N6,N6-tetrakis(2-methoxyethyl)-4-(4-methoxypiperidin-1-yl)-8-(4-(4-methoxypyrimidin-2-yl)piperazin-1-yl)pyrimido[5,4-d]pyrimidine-2,6-diamine]
500 to 1000 nM | CCNc1nc(N(CCOC)CCOC)nc2c(N3CCC(OC)CC3)nc(N(CCOC)CCOC)nc12 [Compound 126, N4-ethyl-N2,N2,N6,N6-tetrakis(2-methoxyethyl)-8-(4-methoxypiperidin-1-yl)pyrimido[5,4-d]pyrimidine-2,4,6-triamine]
100 to 500 nM | COCCN(CCOC)c1nc(N2CCC(OC)CC2)c2nc(N(CCOC)CCOC)nc(NCC(C)C)c2n1 [Compound 127, N4-isobutyl-N2,N2,N6,N6-tetrakis(2-methoxyethyl)-8-(4-methoxypiperidin-1-yl)pyrimido[5,4-d]pyrimidine-2,4,6-triamine]
500 to 1000 nM | COCCNc1nc(N(CCOC)CCOC)nc2c(N3CCC(OC)CC3)nc(N(CCOC)CCOC)nc12 [Compound 128, N2,N2,N4,N6,N6-pentakis(2-methoxyethyl)-8-(4-methoxypiperidin-1-yl)pyrimido[5,4-d]pyrimidine-2,4,6-triamine]
100 to 500 nM | COCCN(CCOC)c1nc(N2CCN(c3nc(C)no3)CC2)c2nc(N(CCOC)CCOC)nc(N3CCN(c4nc(C)no4)CC3)c2n1 [Compound 129, N2,N2,N6,N6-tetrakis(2-methoxyethyl)-4,8-bis(4-(3-methyl-1,2,4-oxadiazol-5-yl)piperazin-1-yl)pyrimido[5,4-d]pyrimidine-2,6-diamine]
500 to 1000 nM | COCCN(CCOC)c1nc(N2CCN(c3nnc(C)o3)CC2)c2nc(N(CCOC)CCOC)nc(N3CCN(c4nnc(C)o4)CC3)c2n1 [Compound 130, N2,N2,N6,N6-tetrakis(2-methoxyethyl)-4,8-bis(4-(5-methyl-1,3,4-oxadiazol-2-yl)piperazin-1-yl)pyrimido[5,4-d]pyrimidine-2,6-diamine]
100 to 500 nM | COCCN(CCOC)c1nc(N2CCN(c3ncn(C)n3)CC2)c2nc(N(CCOC)CCOC)nc(N3CCN(c4ncn(C)n4)CC3)c2n1 [Compound 131, N2,N2,N6,N6-tetrakis(2-methoxyethyl)-4,8-bis(4-(1-methyl-1H-1,2,4-triazol-3-yl)piperazin-1-yl)pyrimido[5,4-d]pyrimidine-2,6-diamine]
500 to 1000 nM | CCN(CCN1CCCC1)c1nc(N2CCC(OC)CC2)c2nc(N(CCOC)CCOC)nc(N3CCC(OC)CC3)c2n1 [Compound 132, N2-ethyl-N6,N6-bis(2-methoxyethyl)-4,8-bis(4-methoxypiperidin-1-yl)-N2-(2-(pyrrolidin-1-yl)ethyl)pyrimido[5,4-d]pyrimidine-2,6-diamine]
500 to 1000 nM | CCN(CCN1CCCCC1)c1nc(N2CCC(OC)CC2)c2nc(N(CCOC)CCOC)nc(N3CCC(OC)CC3)c2n1 [Compound 133, N2-ethyl-N6,N6-bis(2-methoxyethyl)-4,8-bis(4-methoxypiperidin-1-yl)-N2-(2-(piperidin-1-yl)ethyl)pyrimido[5,4-d]pyrimidine-2,6-diamine]
500 to 1000 nM | COCCN(CCOC)c1nc(N2CCC(OC)CC2)c2nc(NCCCn3ccnc3)nc(N3CCC(OC)CC3)c2n1 [Compound 134, N2-(3-(1H-imidazol-1-yl)propyl)-N6,N6-bis(2-methoxyethyl)-4,8-bis(4-methoxypiperidin-1-yl)pyrimido[5,4-d]pyrimidine-2,6-diamine]
500 to 1000 nM | COCCN(CCOC)c1nc(N2CCN(c3nnc(C)o3)CC2)c2nc(N(CCOC)CCOC)nc(N3CCC(OC)CC3)c2n1 [Compound 135, N2,N2,N6,N6-tetrakis(2-methoxyethyl)-4-(4-methoxypiperidin-1-yl)-8-(4-(5-methyl-1,3,4-oxadiazol-2-yl)piperazin-1-yl)pyrimido[5,4-d]pyrimidine-2,6-diamine]
< 100 nM | COCCN(CCOC)c1nc(N2CCC(CO)C2)c2nc(N(CCOC)CCOC)nc(N3CCC(OC)CC3)c2n1 (centres unmarked) [Compound 136, (1-(2,6-bis(bis(2-methoxyethyl)amino)-8-(4-methoxypiperidin-1-yl)pyrimido[5,4-d]pyrimidin-4-yl)pyrrolidin-3-yl)methanol]
< 100 nM | COCCN(CCOC)c1nc(N2CCC(OC)CC2)c2nc(N(CCOC)CCOC)nc(NCc3ccc(Cl)c(Cl)c3)c2n1 [Compound 137, N4-(3,4-dichlorobenzyl)-N2,N2,N6,N6-tetrakis(2-methoxyethyl)-8-(4-methoxypiperidin-1-yl)pyrimido[5,4-d]pyrimidine-2,4,6-triamine]
< 100 nM | COCCN(CCOC)c1nc(N2CCC(OC)CC2)c2nc(N(CCOC)CCOC)nc(NCc3ccc(F)c(Cl)c3)c2n1 [Compound 138, N4-(3-chloro-4-fluorobenzyl)-N2,N2,N6,N6-tetrakis(2-methoxyethyl)-8-(4-methoxypiperidin-1-yl)pyrimido[5,4-d]pyrimidine-2,4,6-triamine]
< 100 nM | COCCN(CCOC)c1nc(N2CCC(OC)CC2)c2nc(N(CCOC)CCOC)nc(NCc3ccc(F)c(F)c3)c2n1 [Compound 139, N4-(3,4-difluorobenzyl)-N2,N2,N6,N6-tetrakis(2-methoxyethyl)-8-(4-methoxypiperidin-1-yl)pyrimido[5,4-d]pyrimidine-2,4,6-triamine]
100 to 500 nM | COCCN(CCOC)c1nc(N2CCC(OC)CC2)c2nc(N(CCOC)CCOC)nc(NCc3ccc(C#N)cc3)c2n1 [Compound 140, 4-(((2,6-bis(bis(2-methoxyethyl)amino)-8-(4-methoxypiperidin-1-yl)pyrimido[5,4-d]pyrimidin-4-yl)amino)methyl)benzonitrile]
< 100 nM | COCCN(CCOC)c1nc(N2CCC(OC)CC2)c2nc(N(CCOC)CCOC)nc(NCc3cccc(Cl)c3)c2n1 [Compound 141, N4-(3-chlorobenzyl)-N2,N2,N6,N6-tetrakis(2-methoxyethyl)-8-(4-methoxypiperidin-1-yl)pyrimido[5,4-d]pyrimidine-2,4,6-triamine]
